From US20240150377A1, “MODULATORS OF CYSTIC FIBROSIS TRANSMEMBRANE CONDUCTANCE REGULATOR” (VERTEX PHARMACEUTICALS INCORPORATED, priority 2020, published 2024)
pEC50: −log10 of the molar value. Like-named read-outs stand apart in the source and are kept apart here.

Target: CFTR (Homo sapiens, UniProt P13569)
Assay: Membrane potential dye, Enteroid Assay A
Format: cell-based
Details: for Ent. A Max Activity: chloride transport as % of triple combination control (Enteroid Assay A); for pEC50: human enteroid cells, 18-24 hours, acute 10 μM forskolin and 300 nM ivacaftor, read-out: Ent. A EC50
Protocol: Base medium (ADF+++) consisted of Advanced DMEM/Ham's F12, 2 mM Glutamax, 10 mM HEPES, […] penicillin/streptomycin.
Intestinal enteroid maintenance medium (IEMM) consisted of ADF+++, 1× B27 supplement, 1× N2 supplement, 1.25 mM N-acetyl cysteine, 10 mM Nicotinamide, 50 ng/mL hEGF, 10 nM Gastrin, 1 μg/mL hR-spondin-1, 100 ng/mL hNoggin, TGF-b type 1 inhibitor A-83-01, 100 μg/mL Primocin, 10 μM P38 MAPK inhibitor SB202190.
Bath 1 Buffer consisted of 1 mM MgCl2, 160 mM NaCl, 4.5 mM KCl, 10 mM HEPES, 10 mM Glucose, 2 mM CaCl2).
Chloride Free Buffer consisted of 1 mM Magnesium Gluconate, 2 mM Calcium Gluconate, 4.5 mM Potassium Gluconate, 160 mM Sodium Gluconate, 10 mM HEPES, 10 mM Glucose.
BathI Dye Solution consisted of Bath 1 Buffer, 0.04% Pluronic F127, 20 μM Methyl Oxonol, 30 μM CaCCinh-A01, 30 μM Chicago Sky Blue.
Chloride Free Dye Solution consisted of Chloride Free Buffer, 0.04% Pluronic F127, 20 μM Methyl Oxonol, 30 μM CaCCinh-A01, 30 μM Chicago Sky Blue.
Chloride Free Dye Stimulation Solution consisted of Chloride Free Dye Solution, 10 μM forskolin, 100 μM IBMX, and 300 nM Compound III.
Human intestinal epithelial enteroid cells were obtained from the Hubrecht Institute for Developmental Biology and Stem Cell Research, Utrecht, The Netherlands and expanded in T-Flasks as previously described (Dekkers J F, Wiegerinck C L, de Jonge H R, Bronsveld I, Janssens H M, de Winter-de Groot K M, Brandsma A M, de Jong N W M, Bijvelds M J C, Scholte B J, Nieuwenhuis E E S, van den Brink S, Clevers H, van der Ent C K, Middendorp S and M Beekman J M. A functional CFTR assay using primary cystic fibrosis intestinal organoids. Nat Med. 2013 July;19(7):939-45.).
3. Enteroid Cell Harvesting and Seeding
Cells were recovered in cell recovery solution, collected by centrifugation at 650 rpm for 5 min at 4° C., resuspended in TrypLE and incubated for 5 min at 37° C. Cells were then collected by centrifugation at 650 rpm for 5 min at 4° C. and resuspended in IEMM containing 10 μM ROCK inhibitor (RI). The cell suspension was passed through a 40 μm cell strainer and resuspended at 1×10^6 cells/mL in IEMM containing 10 μM RI. Cells were seeded at 5000 cells/well into multi-well plates and incubated for overnight at 37° C., 95% humidity and 5% CO2 prior to assay.
4. Membrane Potential Dye, Enteroid Assay A
Enteroid cells were incubated with test compound in IEMM for 18-24 hours at 37° C., 95% humidity and 5% CO2. […] Briefly, cells were washed 5 times in Bath 1 Buffer. Bath 1 Dye Solution was added, and the cells were incubated for 25 min at room temperature. Following dye incubation, cells were washed 3 times in Chloride Free Dye Solution. Chloride transport was initiated by addition of Chloride Free Dye Stimulation Solution and the fluorescence signal was read for 15 min. […] Chloride transport was then expressed as a percentage of the chloride transport following treatment with 3 μM N-[(6-amino-2-pyridyl)sulfonyl]-6-(3-fluoro-5-isobutoxy-phenyl)-2-[(4S)-2,2,4-trimethylpyrrolidin-1-yl]pyridine-3-carboxamide, 3 μM (R)-1-(2,2-difluorobenzo[d][1,3]dioxol-5-yl)-N-(1-(2,3-dihydroxypropyl)-6-fluoro-2-(1-hydroxy-2-methylpropan-2-yl)-1H-indol-5-yl)cyclopropanecarboxamide and 300 nM acute N-[2,4-bis(1,1-dimethylethyl)-5-hydroxyphenyl]-1,4-dihydro-4-oxoquinoline-3-carboxamide triple combination control (% Activity).

CFTR, sequence (P13569 with tags, fused parts or gaps DEL508-508): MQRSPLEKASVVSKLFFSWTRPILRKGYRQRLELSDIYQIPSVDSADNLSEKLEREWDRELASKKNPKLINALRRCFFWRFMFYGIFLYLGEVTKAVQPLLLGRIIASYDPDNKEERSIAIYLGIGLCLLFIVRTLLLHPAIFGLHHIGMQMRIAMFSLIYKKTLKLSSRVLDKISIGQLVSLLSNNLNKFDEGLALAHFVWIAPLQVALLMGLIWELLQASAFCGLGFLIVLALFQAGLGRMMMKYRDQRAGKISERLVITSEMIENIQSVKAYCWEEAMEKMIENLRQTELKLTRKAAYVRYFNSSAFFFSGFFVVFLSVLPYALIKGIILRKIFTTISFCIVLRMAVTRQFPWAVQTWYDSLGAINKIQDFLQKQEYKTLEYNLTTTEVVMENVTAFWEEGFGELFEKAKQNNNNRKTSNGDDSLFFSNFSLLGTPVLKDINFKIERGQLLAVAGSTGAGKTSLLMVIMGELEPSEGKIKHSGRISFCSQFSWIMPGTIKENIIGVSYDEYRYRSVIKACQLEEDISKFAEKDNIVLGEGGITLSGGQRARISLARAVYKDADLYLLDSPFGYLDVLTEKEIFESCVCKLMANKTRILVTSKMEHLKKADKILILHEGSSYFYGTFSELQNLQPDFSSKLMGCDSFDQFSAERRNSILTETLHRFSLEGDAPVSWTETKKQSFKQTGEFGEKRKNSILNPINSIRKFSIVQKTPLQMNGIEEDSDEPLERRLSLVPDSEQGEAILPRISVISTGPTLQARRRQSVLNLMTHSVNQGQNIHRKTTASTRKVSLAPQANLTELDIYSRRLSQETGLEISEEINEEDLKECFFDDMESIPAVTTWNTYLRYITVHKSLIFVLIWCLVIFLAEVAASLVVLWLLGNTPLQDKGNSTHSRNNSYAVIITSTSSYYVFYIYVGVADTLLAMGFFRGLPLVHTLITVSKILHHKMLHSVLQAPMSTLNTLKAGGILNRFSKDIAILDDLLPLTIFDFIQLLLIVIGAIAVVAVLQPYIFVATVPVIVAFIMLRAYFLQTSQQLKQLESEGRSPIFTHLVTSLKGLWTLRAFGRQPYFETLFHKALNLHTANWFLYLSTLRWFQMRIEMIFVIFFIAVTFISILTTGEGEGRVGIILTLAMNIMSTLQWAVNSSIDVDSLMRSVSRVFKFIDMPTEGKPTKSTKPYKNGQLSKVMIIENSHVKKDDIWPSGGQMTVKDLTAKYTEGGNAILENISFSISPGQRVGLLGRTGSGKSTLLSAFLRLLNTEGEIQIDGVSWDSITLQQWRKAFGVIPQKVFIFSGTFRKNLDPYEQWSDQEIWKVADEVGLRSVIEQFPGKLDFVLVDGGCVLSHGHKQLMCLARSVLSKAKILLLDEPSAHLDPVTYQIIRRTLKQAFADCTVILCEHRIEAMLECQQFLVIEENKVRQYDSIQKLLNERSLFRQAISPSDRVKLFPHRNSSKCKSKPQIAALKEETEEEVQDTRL

Cc1cccc(C)c1-c1cc2nc(n1)NS(=O)(=O)c1cccc(c1)C(=O)N(C)C[C@@H](c1ccc(C(C)(C)C)cc1)O2 (single isomer, unassigned) [Compound 12, 10-(4-tert-butylphenyl)-6-(2,6-dimethylphenyl)-12-methyl-2,2-dioxo-9-oxa-2λ^6-thia-3,5,12,19-tetrazatricyclo[12.3.1.14,8]nonadeca-1(18),4(19),5,7,14,16-hexaen-13-one]
Ent. A Max Activity (Table 7): ++ (++ is 30-60%) | pEC50 (Table 7): > 6.00

Cc1cccc(C)c1-c1cc2nc(n1)NS(=O)(=O)c1cccc(c1)C(=O)N(C)C[C@H](c1cccc(C(C)(C)C)c1)O2 (single isomer, unassigned) [Compound 15, 10-(3-tert-butylphenyl)-6-(2,6-dimethylphenyl)-12-methyl-2,2-dioxo-9-oxa-2λ^6-thia-3,5,12,19-tetrazatricyclo[12.3.1.14,8]nonadeca-1(18),4(19),5,7,14,16-hexaen-13-one]
Ent. A Max Activity (Table 7): + (+ is <30%) | pEC50 (Table 7): 4.52 to 5.52

Cc1cccc(C)c1-c1cc2nc(n1)NS(=O)(=O)c1cccc(c1)C(=O)N(C)C[C@@H](c1cccc(C(C)(C)C)c1)O2 (single isomer, unassigned) [Compound 17, 10-(3-tert-butylphenyl)-6-(2,6-dimethylphenyl)-12-methyl-2,2-dioxo-9-oxa-2λ^6-thia-3,5,12,19-tetrazatricyclo[12.3.1.14,8]nonadeca-1(18),4(19),5,7,14,16-hexaen-13-one]
Ent. A Max Activity (Table 7): +++ (+++ is >60%) | pEC50 (Table 7): > 6.00

Cc1cccc(C)c1-c1cc2nc(n1)NS(=O)(=O)c1cccc(c1)C(=O)N(CCC1CCOCC1)[C@H](CCC1(C(F)(F)F)CC1)CO2 (single isomer, unassigned) [Compound 73, 6-(2,6-dimethylphenyl)-2,2-dioxo-12-(2-tetrahydropyran-4-ylethyl)-11-[2-[1-(trifluoromethyl)cyclopropyl]ethyl]-9-oxa-2λ^6-thia-3,5,12,19-tetrazatricyclo[12.3.1.14,8]nonadeca-1(18),4(19),5,7,14,16-hexaen-13-one]
Ent. A Max Activity (Table 6): + (+ is <30%)

Cc1cccc(C)c1-c1cc2nc(n1)NS(=O)(=O)c1cccc(c1)C(=O)N(CC(O)CO)[C@H](CC(C)C)CO2 (stereo in doubt) [Compound 39, (11R)-12-[(2S)-2,3-Dihydroxypropyl]-6-(2,6-dimethylphenyl)-11-(2-methylpropyl)-9-oxa-2λ^6-thia-3,5,12,19-tetraazatricyclo[12.3.1.14,8]nonadeca-1(17),4(19),5,7,14(18),15-hexaene-2,2,13-trione]
Ent. A Max Activity (Table 6): +++ (+++ is >60%) | pEC50 (Table 6): > 6.00

Cc1cccc(C)c1-c1cc2nc(n1)NS(=O)(=O)c1cccc(c1)C(=O)N(Cc1ccccn1)CCCO2 [Compound 5, 6-(2,6-Dimethylphenyl)-2,2-dioxo-13-(2-pyridylmethyl)-9-oxa-2λ^6-thia-3,5,13,20-tetrazatricyclo[13.3.1.14,8]icosa-1(19),4(20),5,7,15,17-hexaen-14-one]
Ent. A Max Activity (Table 6): +++ (+++ is >60%) | pEC50 (Table 6): 5.52 to 6.00

Cc1cccc(C)c1-c1cc2nc(n1)NS(=O)(=O)c1cccc(c1)C(=O)N(C)CC(c1ccc(-c3ccncc3)cc1)O2 (stereo not shown) [Compound 9, 6-(2,6-Dimethylphenyl)-12-methyl-2,2-dioxo-10-[4-(4-pyridyl)phenyl]-9-oxa-2λ^6-thia-3,5,12,19-tetrazatricyclo[12.3.1.14,8]nonadeca-1(18),4(19),5,7,14,16-hexaen-13-one]
Ent. A Max Activity (Table 6): ++ (++ is 30-60%) | pEC50 (Table 6): > 6.00

Cc1cccc(C)c1-c1cc2nc(n1)NS(=O)(=O)c1cccc(c1)C(=O)N(C)C(c1ccc(C(C)(C)C)cc1)CO2 (stereo not shown) [Compound 13, 11-(4-tert-butylphenyl)-6-(2,6-dimethylphenyl)-12-methyl-2,2-dioxo-9-oxa-2λ^6-thia-3,5,12,19-tetrazatricyclo[12.3.1.14,8]nonadeca-1(18),4(19),5,7,14,16-hexaen-13-one]
Ent. A Max Activity (Table 7): ++ (++ is 30-60%) | pEC50 (Table 7): > 6.00

Cc1cccc(C)c1-c1cc2nc(n1)NS(=O)(=O)c1cccc(c1)C(=O)N(C[C@@H](O)CO)[C@H](CC(C)C)CO2 [Compound 38, (11R)-12-[(2R)-2,3-Dihydroxypropyl]-6-(2,6-dimethylphenyl)-11-(2-methylpropyl)-9-oxa-2λ^6-thia-3,5,12,19-tetraazatricyclo[12.3.1.14,8]nonadeca-1(17),4(19),5,7,14(18),15-hexaene-2,2,13-trione]
Ent. A Max Activity (Table 6): +++ (+++ is >60%) | pEC50 (Table 6): > 6.00

Cc1cccc(C)c1-c1cc2nc(n1)NS(=O)(=O)c1cccc(c1)C(=O)N(Cc1cc3n(n1)CCNC3=O)[C@H](CC(C)C)CO2 [Compound 41, (11R)-6-(2,6-dimethylphenyl)-11-isobutyl-2,2-dioxo-12-[(4-oxo-6,7-dihydro-5H-pyrazolo[1,5-a]pyrazin-2-yl)methyl]-9-oxa-2λ^6-thia-3,5,12,19-tetrazatricyclo[12.3.1.14,8]nonadeca-1(18),4(19),5,7,14,16-hexaen-13-one]
Ent. A Max Activity (Table 6): +++ (+++ is >60%) | pEC50 (Table 6): > 6.00

Cc1cccc(C)c1-c1cc2nc(n1)NS(=O)(=O)c1cccc(c1)C(=O)N(Cc1ccccc1)C(C(=O)NC(C)(C)C)CO2 (stereo not shown) [Compound 44, 12-benzyl-N-tert-butyl-6-(2,6-dimethylphenyl)-2,2,13-trioxo-9-oxa-2λ^6-thia-3,5,12,19-tetrazatricyclo[12.3.1.14,8]nonadeca-1(18),4(19),5,7,14,16-hexaene-11-carboxamide]
Ent. A Max Activity (Table 6): ++ (++ is 30-60%) | pEC50 (Table 6): 4.52 to 5.52

Cc1cccc(C)c1-c1cc2nc(n1)NS(=O)(=O)c1cccc(c1)CN(C(=O)CC1CCOCC1)[C@H](CC(C)C)CO2 [Compound 45, (11R)-6-(2,6-Dimethylphenyl)-11-(2-methylpropyl)-12-[2-(oxan-4-yl)acetyl]-9-oxa-2λ^6-thia-3,5,12,19-tetraazatricyclo[12.3.1.14,8]nonadeca-1(17),4,6,8(19),14(18),15-hexaene-2,2-dione]
Ent. A Max Activity (Table 7): + (+ is <30%)

Cc1cccc(C)c1-c1cc2nc(n1)NS(=O)(=O)c1cccc(c1)C(=O)N(CCOCc1ccccc1)[C@H](CC(C)C)CO2 [Compound 81, (11R)-12-[2-(Benzyloxy)ethyl]-6-(2,6-dimethylphenyl)-11-(2-methylpropyl)-9-oxa-2λ^6-thia-3,5,12,19-tetraazatricyclo[12.3.1.14,8]nonadeca-1(17),4,6,8(19),14(18),15-hexaene-2,2,13-trione]
Ent. A Max Activity (Table 6): +++ (+++ is >60%) | pEC50 (Table 6): > 6.00

COc1ccnc(CN2C(=O)c3cccc(c3)S(=O)(=O)Nc3nc(cc(-c4c(C)cccc4C)n3)OC[C@H]2CC(C)C)c1 [Compound 82, (11R)-6-(2,6-Dimethylphenyl)-11-isobutyl-12-[(4-methoxy-2-pyridyl)methyl]-2,2-dioxo-9-oxa-2λ^6-thia-3,5,12,19-tetrazatricyclo[12.3.1.14,8]nonadeca-1(18),4(19),5,7,14,16-hexaen-13-one]
Ent. A Max Activity (Table 6): +++ (+++ is >60%) | pEC50 (Table 6): > 6.00

Cc1cccc(C)c1-c1cc2nc(n1)NS(=O)(=O)c1cccc(c1)C(=O)N(Cc1ccc(C3=CCN(C)CC3)cc1)[C@H](CC(C)C)CO2 [Compound 86, (11R)-6-(2,6-Dimethylphenyl)-11-isobutyl-12-[[4-(1-methyl-3,6-dihydro-2H-pyridin-4-yl)phenyl]methyl]-2,2-dioxo-9-oxa-2λ^6-thia-3,5,12,19-tetrazatricyclo[12.3.1.14,8]nonadeca-1(18),4(19),5,7,14,16-hexaen-13-one]
Ent. A Max Activity (Table 6): +++ (+++ is >60%) | pEC50 (Table 6): > 6.00
